Test results: article PMC6594753, “Cystic fibrosis drug ivacaftor stimulates CFTR channels at picomolar concentrations” (eLife, 2019)
pEC50: −log10 of the molar value. Several values for one entry are separate records, joined by “and”; a condition that tells them apart may be missing. Identical values can stand only once.

Experiments:
G551D CFTR = target: T1, G551D CFTR (Homo sapiens, UniProt P13569, G551D); test: Quasi-macroscopic current recording in excised inside-out patches from Xenopus laevis oocytes; format: biochemical
T1 construct: expressed in transfected cells; host or cells: Xenopus laevis oocytes injected with cRNA transcribed from mutated pGEMHE-CFTR
T1 sequence (P13569 whole entry G551D): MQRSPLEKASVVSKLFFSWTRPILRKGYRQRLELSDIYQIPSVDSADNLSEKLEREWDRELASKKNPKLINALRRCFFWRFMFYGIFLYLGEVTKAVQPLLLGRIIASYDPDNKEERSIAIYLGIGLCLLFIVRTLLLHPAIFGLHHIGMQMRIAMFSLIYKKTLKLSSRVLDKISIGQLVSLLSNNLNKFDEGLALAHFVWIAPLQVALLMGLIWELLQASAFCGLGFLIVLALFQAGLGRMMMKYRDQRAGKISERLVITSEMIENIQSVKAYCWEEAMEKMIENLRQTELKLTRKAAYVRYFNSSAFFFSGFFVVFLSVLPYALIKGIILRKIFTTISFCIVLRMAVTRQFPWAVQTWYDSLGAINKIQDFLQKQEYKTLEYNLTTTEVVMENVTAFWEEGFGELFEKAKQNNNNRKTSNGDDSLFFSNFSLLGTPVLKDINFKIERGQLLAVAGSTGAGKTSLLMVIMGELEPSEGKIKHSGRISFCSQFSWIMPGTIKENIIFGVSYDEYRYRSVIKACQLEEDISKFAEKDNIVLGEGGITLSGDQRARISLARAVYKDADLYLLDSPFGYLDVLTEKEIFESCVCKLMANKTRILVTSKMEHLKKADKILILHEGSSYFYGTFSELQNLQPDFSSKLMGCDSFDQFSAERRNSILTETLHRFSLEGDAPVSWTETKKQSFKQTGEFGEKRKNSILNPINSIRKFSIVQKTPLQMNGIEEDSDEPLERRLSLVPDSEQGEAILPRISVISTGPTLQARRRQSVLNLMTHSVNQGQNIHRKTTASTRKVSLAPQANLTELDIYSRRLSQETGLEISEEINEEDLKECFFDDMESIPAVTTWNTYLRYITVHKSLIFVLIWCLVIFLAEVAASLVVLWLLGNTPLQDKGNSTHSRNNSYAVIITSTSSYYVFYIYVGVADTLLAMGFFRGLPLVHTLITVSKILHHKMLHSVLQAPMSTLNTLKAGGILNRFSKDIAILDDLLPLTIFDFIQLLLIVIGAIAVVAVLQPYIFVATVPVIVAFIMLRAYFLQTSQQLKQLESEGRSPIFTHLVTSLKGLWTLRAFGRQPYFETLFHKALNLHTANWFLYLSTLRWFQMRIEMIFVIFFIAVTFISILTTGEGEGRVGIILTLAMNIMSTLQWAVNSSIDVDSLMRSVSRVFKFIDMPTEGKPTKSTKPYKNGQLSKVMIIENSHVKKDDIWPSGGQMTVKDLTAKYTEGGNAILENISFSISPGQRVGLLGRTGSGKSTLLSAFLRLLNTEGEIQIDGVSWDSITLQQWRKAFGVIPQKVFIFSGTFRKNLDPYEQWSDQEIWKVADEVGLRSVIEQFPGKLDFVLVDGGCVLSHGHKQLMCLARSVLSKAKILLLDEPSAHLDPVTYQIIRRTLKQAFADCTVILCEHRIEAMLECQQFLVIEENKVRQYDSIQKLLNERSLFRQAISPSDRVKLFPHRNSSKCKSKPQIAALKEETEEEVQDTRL
Text: (§1) We reasoned that this circumstance might explain some of the puzzling features of the drug, such as CFTR channel inactivation observed in some cases ([Cholon et al., 2014]), as well as apparent irreversibility of drug effects ([Jih and Hwang, 2013]; [Lin et al., 2016]; [Yeh et al., 2015]; [Yeh et al., 2017]; [Wang et al., 2014]; [Wang et al., 2018]). To investigate stability and reversibility of Vx-770 effects in a concentration range that can be achieved in the human body during oral drug administration, we tested the effects of our 1x saturated Vx-770 solution and its dilutions in inside-out patches excised from Xenopus laevis oocytes expressing WT or mutant human CFTR channels.
(§2) The G551D and ΔF508 mutations were introduced into pGEMHE-CFTR using the QuikChange Kit (Agilent, Santa Clara, CA, USA), and confirmed by automated sequencing; cDNA was purified (HiSpeed Plasmid Midi Kit, Qiagen), transcribed in vitro (mMessage T7 Kit, ThermoFisher Scientific, Waltham, MA USA) and cRNA stored at −80°C.
(§3) Patch pipette solution contained (in mM): 136 NMDG-Cl, 2 MgCl2, 5 HEPES, pH = 7.4 with NMDG. Bath solution contained (in mM): 134 NMDG-Cl, 2 MgCl2, 5 HEPES, 0.5 EGTA, pH = 7.1 with NMDG. MgATP (2 mM) was added from a 400 mM aqueous stock solution (pH = 7.1 with NMDG). Before each experiment 300 nM catalytic subunit of PKA (Sigma-Aldrich Kft., Budapest, Hungary) was applied for ~1 min to phosphorylate CFTR channels. Vx-770 (Selleck Chemicals) was diluted into the bath solution either from a ‘1x saturated’ aqueous stock solution (see above, concentration ~62 nM), or from a commercially obtained 10 mM stock dissolved in DMSO (Selleck Chemicals). Following patch excision the patch pipette was moved into a flow chamber, and recordings were done under continuous superfusion of the cytosolic patch surface. Solution compositions were exchanged using computer-driven electronic valves (solution exchange time constant <50 ms). After each recording day perfusion tubings were extensively washed with distilled water. Although supersaturated solutions of Vx-770 were not employed here, any perfusion tubing that had ever been in contact with a given concentration of Vx-770 was subsequently used only for solutions that contained the same, or higher, concentrations of the drug. After every 5–6 experimental days the entire perfusion system was replaced. Currents were recorded at 25°C, at a membrane potential of −40 mV, digitized at 10 kHz, Gaussian-filtered at 2 kHz, and recorded to disk (Axopatch 200B, Digidata 1322A, Pclamp9 (Molecular Devices, RRID: SCR_011323)). For display purposes, currents are shown filtered at 10 Hz and sampled at 20 Hz, and expanded single-channel traces (Figure 2b, Figure 4d) are shown filtered at 50 Hz and sampled at 250 Hz.
(§4) Vx-770 was applied after currents elicited by 2 mM ATP had stabilized. To allow for full development of its potentiator effect, Vx-770 was superfused until the current reached steady state which, for low nanomolar Vx-770, required up to 5–6 min. After full stimulation, Vx-770 was washed off for at least 5 min to allow the current to decline to a post-drug steady state. Fractional current stimulation by Vx-770 (I/Icontrol) was calculated as the mean steady current in the presence of the drug, divided by the average of the pre- and post-drug mean steady currents. Dose response curves (Figure 3c,f) were least-squares fitted to the modified Hill equation I/Icontrol=(K0.5^n+(Imax/Icontrol)[Vx-770]^n)/(K0.5^n+[Vx-770]^n), with Imax/Icontrol, K0.5, and n as free parameters.
(§5) To obtain apparent deactivation rates, current decay time courses following Vx-770 removal were fitted by single exponentials using least squares, and deactivation rates defined as the inverse of the decay time constant (1/τoff; Figure 4c). To obtain apparent activation rates, current activation time courses upon Vx-770 addition were fitted to an empirical three-step kinetic scheme S1→S2→S3→S4. […]

ΔF508 CFTR = target: T2, ΔF508 CFTR (Homo sapiens, UniProt P13569, DEL508-508); test: as above; format: biochemical
T2 construct: expressed in transfected cells; host or cells: Xenopus laevis oocytes injected with cRNA transcribed from mutated pGEMHE-CFTR
T2 sequence (P13569 with tags, fused parts or gaps DEL508-508): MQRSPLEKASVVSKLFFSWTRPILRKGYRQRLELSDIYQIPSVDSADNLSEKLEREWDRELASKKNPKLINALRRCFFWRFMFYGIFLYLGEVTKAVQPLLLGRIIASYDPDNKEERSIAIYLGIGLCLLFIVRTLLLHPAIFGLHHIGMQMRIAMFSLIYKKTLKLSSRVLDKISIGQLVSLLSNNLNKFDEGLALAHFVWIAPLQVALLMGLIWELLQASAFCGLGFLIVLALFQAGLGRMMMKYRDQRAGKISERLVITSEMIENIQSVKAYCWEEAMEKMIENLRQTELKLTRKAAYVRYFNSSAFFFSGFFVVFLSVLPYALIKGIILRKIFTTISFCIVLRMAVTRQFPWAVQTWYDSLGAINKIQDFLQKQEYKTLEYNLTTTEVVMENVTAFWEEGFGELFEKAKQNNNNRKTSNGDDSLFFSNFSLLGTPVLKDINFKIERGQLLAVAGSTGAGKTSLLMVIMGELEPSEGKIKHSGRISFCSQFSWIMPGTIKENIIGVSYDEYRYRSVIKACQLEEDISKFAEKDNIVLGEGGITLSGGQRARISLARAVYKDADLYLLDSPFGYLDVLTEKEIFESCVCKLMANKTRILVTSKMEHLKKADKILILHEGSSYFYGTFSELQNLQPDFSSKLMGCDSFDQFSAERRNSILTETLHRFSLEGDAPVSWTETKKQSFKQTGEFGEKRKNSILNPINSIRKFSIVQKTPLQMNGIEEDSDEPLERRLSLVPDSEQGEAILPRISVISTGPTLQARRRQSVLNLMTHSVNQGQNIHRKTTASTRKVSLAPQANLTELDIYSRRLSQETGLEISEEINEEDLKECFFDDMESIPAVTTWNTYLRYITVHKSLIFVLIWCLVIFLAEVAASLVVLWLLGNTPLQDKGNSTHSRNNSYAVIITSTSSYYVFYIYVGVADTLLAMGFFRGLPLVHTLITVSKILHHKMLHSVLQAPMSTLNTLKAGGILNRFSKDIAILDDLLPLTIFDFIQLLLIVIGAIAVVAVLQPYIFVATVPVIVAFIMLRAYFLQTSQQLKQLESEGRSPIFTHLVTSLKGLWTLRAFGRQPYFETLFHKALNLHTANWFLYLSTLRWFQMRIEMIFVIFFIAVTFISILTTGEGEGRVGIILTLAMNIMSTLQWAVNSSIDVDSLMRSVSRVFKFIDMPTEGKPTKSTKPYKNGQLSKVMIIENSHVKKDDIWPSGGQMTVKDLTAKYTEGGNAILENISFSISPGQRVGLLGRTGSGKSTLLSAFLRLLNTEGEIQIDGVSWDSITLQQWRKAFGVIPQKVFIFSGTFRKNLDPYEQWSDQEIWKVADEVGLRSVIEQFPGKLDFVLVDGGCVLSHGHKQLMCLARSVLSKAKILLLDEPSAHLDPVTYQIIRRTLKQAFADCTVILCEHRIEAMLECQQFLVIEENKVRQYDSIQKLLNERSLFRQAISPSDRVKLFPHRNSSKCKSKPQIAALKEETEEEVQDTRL
Text: as §1, §2, §3, §4, §5

[1] = diluted from 1x saturated aqueous stock, 2 mM ATP, read-out: K0.5 for current stimulation

CC(C)(C)c1cc(C(C)(C)C)c(NC(=O)c2c[nH]c3ccccc3c2=O)cc1O [Vx-770, ivacaftor]
Hill coefficient (G551D CFTR): 1.22±0.10 | potency higher than previously reported (G551D CFTR): ~ 200 fold | reversibility of current stimulation (G551D CFTR): fully reversible | time constant of reversal (G551D CFTR): ~ 2 min | pEC50 (G551D CFTR; [1]): 8.85 and ~8.82 | Hill coefficient (ΔF508 CFTR): 1.12±0.07 | reversibility of current stimulation (ΔF508 CFTR): fully reversible | time constant of reversal (ΔF508 CFTR): ~ 2 min | pEC50 (ΔF508 CFTR; [1]): 8.82 and ~8.82
